From ChEMBL document CHEMBL1697731, “Cheminformatics analysis of assertions mined from literature that describe drug-induced liver injury in different species” (Chem Res Toxicol, 2010)

Columns and labels:
Hepatotoxicity [1] = test: Literature-mined compound from Fourches et al multi-species drug-induced liver injury (DILI) dataset, effect in humans; conditions: human
Hepatotoxicity [2] = test: Literature-mined compound from Fourches et al multi-species drug-induced liver injury (DILI) dataset, effect in rodents; conditions: rodentia
Hepatotoxicity [3] = test: Literature-mined compound from Fourches et al multi-species drug-induced liver injury (DILI) dataset, effect in non-rodents

Row | Molecule | Hepatotoxicity (Hepatotoxicity [1]; Liver) | Hepatotoxicity (Hepatotoxicity [2]; Liver) | Hepatotoxicity (Hepatotoxicity [3]; Liver) | Hepatotoxicity (Hepatotoxicity [1]) | Hepatotoxicity (Hepatotoxicity [2]) | Hepatotoxicity (Hepatotoxicity [3])
1 | NNc1nncc2ccccc12 [HYDRALAZINE] | drug-induced liver injury reported | drug-induced liver injury reported | drug-induced liver injury reported | – | – | –
2 | Clc1cccc(Cl)c1N=C1NCCN1 [CLONIDINE] | drug-induced liver injury reported | drug-induced liver injury reported | no drug-induced liver injury reported | – | – | –
3 | CNCCC=C1c2ccccc2CCc2ccccc21 [NORTRIPTYLINE] | drug-induced liver injury reported | no drug-induced liver injury reported | no drug-induced liver injury reported | – | – | –
4 | COc1ccc2c(c1)[C@]13CCCC[C@@H]1[C@H](C2)N(C)CC3 [DEXTROMETHORPHAN] | – | – | – | drug-induced liver injury reported | no drug-induced liver injury reported | no drug-induced liver injury reported
5 | CC(C)/N=c1\cc2n(-c3ccc(Cl)cc3)c3ccccc3nc-2cc1Nc1ccc(Cl)cc1 [CLOFAZIMINE] | – | – | – | drug-induced liver injury reported | no drug-induced liver injury reported | no drug-induced liver injury reported
6 | CCCCOCCOCCOCc1cc2c(cc1CCC)OCO2 [PIPERONYL BUTOXIDE] | no drug-induced liver injury reported | drug-induced liver injury reported | no drug-induced liver injury reported | – | – | –
7 | CC(O)(CS(=O)(=O)c1ccc(F)cc1)C(=O)Nc1ccc(C#N)c(C(F)(F)F)c1 (stereo unspecified) [BICALUTAMIDE] | – | – | – | drug-induced liver injury reported | no drug-induced liver injury reported | no drug-induced liver injury reported
8 | Cl.N=C(N)N [GUANIDINE HYDROCHLORIDE] | – | – | – | drug-induced liver injury reported | drug-induced liver injury reported | no drug-induced liver injury reported
9 | CC(C)OC(=O)C(C(=O)OC(C)C)=C1SC=CS1 [MALOTILATE] | – | – | – | drug-induced liver injury reported | drug-induced liver injury reported | no drug-induced liver injury reported
10 | Clc1ccccc1CN1CCc2sccc2C1 [TICLOPIDINE] | drug-induced liver injury reported | drug-induced liver injury reported | no drug-induced liver injury reported | – | – | –
11 | CCCCCc1cc(O)c2c(c1)OC(C)(C)[C@@H]1CCC(C)=C[C@@H]21 [DRONABINOL] | – | – | – | drug-induced liver injury reported | drug-induced liver injury reported | no drug-induced liver injury reported
12 | COc1ccccc1Oc1c(NS(=O)(=O)c2ccc(C(C)(C)C)cc2)nc(-c2ncccn2)nc1OCCO [BOSENTAN] | – | – | – | drug-induced liver injury reported | drug-induced liver injury reported | drug-induced liver injury reported
13 | COc1ccc2cc([C@H](C)C(=O)O)ccc2c1 [NAPROXEN] | drug-induced liver injury reported | drug-induced liver injury reported | no drug-induced liver injury reported | – | – | –
14 | CO/N=C(\C(=O)N[C@@H]1C(=O)N2C(C(=O)O)=C(CSc3nc(=O)c(=O)[nH]n3C)CS[C@H]12)c1csc(N)n1 [CEFTRIAXONE] | – | – | – | drug-induced liver injury reported | drug-induced liver injury reported | drug-induced liver injury reported
15 | CCCCC[C@H](O)/C=C/[C@@H]1[C@H]2C/C(=C/CCCC(=O)[O-])O[C@H]2C[C@H]1O.[Na+] [EPOPROSTENOL SODIUM] | – | – | – | no drug-induced liver injury reported | drug-induced liver injury reported | no drug-induced liver injury reported
16 | O=NN(CCCl)C(=O)NCCCl [CARMUSTINE] | – | – | – | drug-induced liver injury reported | drug-induced liver injury reported | no drug-induced liver injury reported
17 | CCCC(C)(COC(N)=O)COC(=O)NC(C)C (stereo unspecified) [CARISOPRODOL] | – | – | – | no drug-induced liver injury reported | drug-induced liver injury reported | no drug-induced liver injury reported
18 | CC(S)C(=O)NCC(=O)O (stereo unspecified) [TIOPRONIN] | – | – | – | drug-induced liver injury reported | drug-induced liver injury reported | no drug-induced liver injury reported
19 | NC(=O)c1csc([C@@H]2O[C@H](CO)[C@@H](O)[C@H]2O)n1 [TIAZOFURIN] | – | – | – | no drug-induced liver injury reported | drug-induced liver injury reported | no drug-induced liver injury reported
20 | CC(C)(C)NC(=O)[C@@H]1CN(Cc2cccnc2)CCN1C[C@@H](O)C[C@@H](Cc1ccccc1)C(=O)N[C@H]1c2ccccc2C[C@H]1O.O | – | – | – | drug-induced liver injury reported | drug-induced liver injury reported | no drug-induced liver injury reported
21 | O=C(OC[C@H]1O[C@@H](OC(=O)c2cc(O)c(O)c(OC(=O)c3cc(O)c(O)c(O)c3)c2)[C@H](OC(=O)c2cc(O)c(O)c(OC(=O)c3cc(O)c(O)c(O)c3)c2)[C@@H](OC(=O)c2cc(O)c(O)c(OC(=O)c3cc(O)c(O)c(O)c3)c2)[C@@H]1OC(=O)c1cc(O)c(O)c(OC(=O)c2cc(O)c(O)c(O)c2)c1)c1cc(O)c(O)c(OC(=O)c2cc(O)c(O)c(O)c2)c1 [TANNIC ACID] | – | – | – | no drug-induced liver injury reported | drug-induced liver injury reported | drug-induced liver injury reported
22 | C[C@]12CC[C@@H]3c4ccc(OS(=O)(=O)O)cc4CC[C@H]3[C@@H]1CCC2=O [ESTRONE SULFURIC ACID] | – | – | – | no drug-induced liver injury reported | drug-induced liver injury reported | no drug-induced liver injury reported
23 | O=C(O)c1cc(-c2ccc(F)cc2F)ccc1O [DIFLUNISAL] | drug-induced liver injury reported | drug-induced liver injury reported | drug-induced liver injury reported | – | – | –
24 | CC(=O)O[C@H]1C(=O)[C@@]2(C)[C@H]([C@H](OC(=O)c3ccccc3)[C@]3(O)C[C@H](OC(=O)[C@H](O)[C@@H](NC(=O)c4ccccc4)c4ccccc4)C(C)=C1C3(C)C)[C@]1(OC(C)=O)CO[C@@H]1C[C@@H]2O [PACLITAXEL] | drug-induced liver injury reported | drug-induced liver injury reported | no drug-induced liver injury reported | – | – | –
25 | N[C@@H]1C[C@H]1c1ccccc1.N[C@H]1C[C@@H]1c1ccccc1 [TRANYLCYPROMINE] | drug-induced liver injury reported | drug-induced liver injury reported | drug-induced liver injury reported | – | – | –
26 | Clc1c(Cl)c(Cl)c(Cl)c(Cl)c1Cl [PERCHLOROBENZENE] | – | – | – | drug-induced liver injury reported | drug-induced liver injury reported | no drug-induced liver injury reported
27 | POLYMYXIN B | – | – | – | drug-induced liver injury reported | drug-induced liver injury reported | no drug-induced liver injury reported
